Converted amounts (≈) assume the structure as drawn.
Tests used:
Staphylococcus aureus [1] = assay: T>MIC in Staphylococcus aureus ATCC 13565 infected New Zealand white rabbit at 3 g administered drug-loaded acrylic bone cement implanted in hips at 3 g exposed to 300 mW/cm2 delayed ultrasound for 0 to 12 hrs; format: ADME, organism-based; settings: in vivo, other
Staphylococcus aureus [2] = assay: (§1) Antimicrobial activity against Staphylococcus aureus ATCC 13565 infected in New Zealand white rabbit assessed as reduction of bacterial count in hip aspirates at 3 g administered drug-loaded in acrylic bone cement implanted in hips treated with 300 mW/cm2 normal ultrasound for 0 to 12 hrs after surgery; format: functional
Staphylococcus aureus [3] = assay: microbe, parasite or virus in culture; settings: ATCC 13565
Description: Antibacterial activity against Staphylococcus aureus ATCC 13565 by tube dilution method

Oryctolagus cuniculus [4] = assay: Effect on local hemorrhage in Staphylococcus aureus ATCC 13565 infected New Zealand white rabbit hip assessed as total volume of drainage fluid at 3 g administered drug-loaded acrylic bone cement implanted in hips treated with 300 mW/cm2 normal ultrasound for 0 to 12 hrs after surgery; format: ADME, organism-based; settings: in vivo, other
Staphylococcus aureus [5] = assay: as §1, with “count per gram of femoral tissue” for “count in hip aspirates”, “for 12” for “for 0”, “to 24” for “to 12”; format: functional
Staphylococcus aureus [6] = assay: T>MIC in Staphylococcus aureus ATCC 13565 infected New Zealand white rabbit at 3 g administered drug-loaded acrylic bone cement implanted in hips after 48 hrs surgery without ultrasound; format: ADME, organism-based; settings: in vivo, other
Staphylococcus aureus [7] = assay: T>MIC in Staphylococcus aureus ATCC 13565 infected New Zealand white rabbit at 3 g administered drug-loaded acrylic bone cement implanted in hips exposed to 300 mW/cm2 delayed ultrasound for 12 to 24 hrs; format: ADME, organism-based; settings: in vivo, other
Oryctolagus cuniculus [8] = assay: Effect on local hemorrhage in Staphylococcus aureus ATCC 13565 infected New Zealand white rabbit hip assessed as total volume of drainage fluid at 3 g administered drug-loaded acrylic bone cement implanted in hips treated with 300 mW/cm2 normal ultrasound for 12 to 24 hrs after surgery; format: ADME, organism-based; settings: in vivo, other
Staphylococcus aureus [9] = assay: as §1, with “per gram of femoral tissue” for “in hip aspirates”; format: functional
Staphylococcus aureus [10] = assay: as §1, with “for 12” for “for 0”, “to 24” for “to 12”; format: functional

**Q.** What does the source list for `CN[C@H](CC(C)C)C(=O)N[C@H]1C(=O)N[C@@H](CC(N)=O)C(=O)N[C@H]2C(=O)N[C@H]3C(=O)N[C@H](C(=O)N[C@H](C(=O)O)c4cc(O)cc(O)c4-c4cc3ccc4O)[C@H](O)c3ccc(c(Cl)c3)Oc3cc2cc(c3O[C@@H]2O[C@H](CO)[C@@H](O)[C@H](O)[C@H]2O[C@H]2C[C@](C)(N)[C@H](O)[C@H](C)O2)Oc2ccc(cc2Cl)[C@H]1O` [VANCOMYCIN]?
**A.** T>MIC (Staphylococcus aureus [1]): 13.59 h; log10CFU/ml (Staphylococcus aureus [2]): 1.62; MBC (Staphylococcus aureus [3]): 3 µg/mL (≈ 2.07 µM); Activity (Oryctolagus cuniculus [4]): 4.65 mL; log10cfu (Staphylococcus aureus [5]): 1.29; T>MIC (Staphylococcus aureus [6]): 14.89 h; T>MIC (Staphylococcus aureus [7]): 35.4 h; Activity (Oryctolagus cuniculus [8]): 1.32 mL; log10cfu (Staphylococcus aureus [9]): 0.53; log10CFU/ml (Staphylococcus aureus [10]): 2.77

— ChEMBL document CHEMBL1154424, “Effect of delayed pulsed-wave ultrasound on local pharmacokinetics and pharmacodynamics of vancomycin-loaded acrylic bone cement in vivo” (Antimicrob Agents Chemother, 2007)
